Reference: ChEMBL document CHEMBL1201862, “PubChem BioAssay data set” (2004)
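Test compounds were applied to cells in 96-well plates for 48 hours at 5 doses. Here, GI50 denotes the concentration required for 50% inhibition of growth.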 Calls of active or inactive are those of the source. Cut-off read from the data, not from the text of the source: active = GI50 up to about 1.1 µM and inactive = higher.

Experiments:
Test in all cases: growth of human tumour cells (NCI), 48 h
[1] = tested on: NCI-H460
[2] = tested on: SF-268
[3] = tested on: HCT-15
[4] = tested on: XF498
[5] = tested on: HCC 2998
[6] = tested on: M14
[7] = tested on: RPMI-8226
[8] = tested on: NCI-H23
[9] = tested on: RXF 393
[10] = tested on: LOX IMVI
[11] = tested on: UACC-257
[12] = tested on: HOP-62
[13] = tested on: LXFL 529
[14] = tested on: SW-620
[15] = tested on: 786-0
[16] = tested on: NCI-H522
[17] = tested on: SK-OV-3
[18] = tested on: DLD-1
[19] = tested on: CAKI-1
[20] = tested on: Malme-3M
[21] = tested on: A549
[22] = tested on: SN12C
[23] = tested on: OVCAR-4
[24] = tested on: DMS-114
[25] = tested on: SK-MEL-2
[26] = tested on: HL-60
[27] = tested on: ACHN
[28] = tested on: TK-10
[29] = tested on: U-251
[30] = tested on: HOP-18
[31] = tested on: RXF 631
[32] = tested on: HOP-92
[33] = tested on: SNB-75
[34] = tested on: OVCAR-5
[35] = tested on: SNB-19
[36] = tested on: SK-MEL-28
[37] = tested on: NCI-H226
[38] = tested on: SR
[39] = tested on: KM12
[40] = tested on: HCT-116
[41] = tested on: MOLT-4
[42] = tested on: SF-295
[43] = tested on: HT-29
[44] = tested on: SK-MEL-5
[45] = tested on: A498
[46] = tested on: SNB-78
[47] = tested on: IGROV-1
[48] = tested on: K562
[49] = tested on: EKVX
[50] = tested on: KM-20L2
[51] = tested on: CCRF-CEM
[52] = tested on: DMS-273
[53] = tested on: SF-539
[54] = tested on: COLO 205
[55] = tested on: OVCAR-8
[56] = tested on: UO-31
[57] = tested on: UACC-62
[58] = tested on: OVCAR-3
[59] = tested on: M19-MEL

Measured: GI50

CN(C)c1ccc(C2CC(=O)C(C#N)=C(c3ccccc3)NN2C)cc1 (stereo not given)
4.33 µM: [3]
inactive: [1] 5.52 µM | [2] 17.2 µM | [4] 4.55 µM | [5] 22.1 µM | [6] 5.04 µM | [7] 13.9 µM | [8] 32.4 µM | [9] 25.2 µM | [10] 4.93 µM | [11] 6.76 µM | [12] 12.8 µM | [13] 8.28 µM | [14] 3.97 µM | [15] 8.73 µM | [16] 3.56 µM | [17] 12 µM | [18] 5.25 µM | [19] 9.82 µM | [20] 5.65 µM | [21] 8.04 µM | [22] 13.6 µM | [23] 31.6 µM | [24] 30.3 µM | [25] 6.05 µM | [26] 3.13 µM | [27] 11.4 µM | [28] > 100 µM | [29] 15.5 µM | [30] 96.6 µM | [31] 44.7 µM | [32] 21.1 µM | [33] 2.05 µM | [34] > 100 µM | [35] 12.1 µM | [36] > 100 µM | [37] 37.4 µM | [38] 14.1 µM | [39] 6.04 µM | [40] 11.5 µM | [41] 8.47 µM | [42] 4.2 µM | [43] 5.14 µM | [44] 3.54 µM | [45] 27.6 µM | [46] 50.4 µM

O=C(NN1C(=O)CSC1c1cccc(F)c1)c1ccncc1 (stereo not given)
inactive: [2] > 100 µM | [47] > 100 µM | [4] > 100 µM | [5] > 100 µM | [6] > 100 µM | [48] > 100 µM | [7] > 100 µM | [8] > 100 µM | [49] > 100 µM | [9] > 100 µM | [10] > 100 µM | [50] > 100 µM | [11] > 100 µM | [13] > 100 µM | [14] > 100 µM | [16] > 100 µM | [51] > 100 µM | [52] > 100 µM | [17] > 100 µM | [19] > 100 µM | [20] > 100 µM | [21] > 100 µM | [53] > 100 µM | [22] > 100 µM | [23] > 100 µM | [24] > 100 µM | [25] > 100 µM | [26] > 100 µM | [27] > 100 µM | [28] > 100 µM | [29] > 100 µM | [31] > 100 µM | [54] > 100 µM | [33] > 100 µM | [34] > 100 µM | [35] > 100 µM | [36] > 100 µM | [55] > 100 µM | [39] > 100 µM | [56] > 100 µM | [41] > 100 µM | [57] > 100 µM | [42] > 100 µM | [43] > 100 µM | [44] > 100 µM | [45] > 100 µM | [46] > 100 µM
active: [30] < 0.01 µM
> 100 µM: [3]

CCOC(=O)C12CCCC1(O)N(NC(N)=O)C(C)=C2C(=O)OC (stereo not given)
inactive: [1] > 100 µM | [2] > 100 µM | [47] > 100 µM | [4] > 100 µM | [5] > 100 µM | [58] > 100 µM | [6] > 100 µM | [48] > 100 µM | [7] > 100 µM | [8] > 100 µM | [49] > 100 µM | [10] > 100 µM | [50] > 100 µM | [11] > 100 µM | [12] > 100 µM | [13] > 100 µM | [14] > 100 µM | [15] > 100 µM | [16] > 100 µM | [51] > 100 µM | [52] > 100 µM | [17] > 100 µM | [18] > 100 µM | [19] > 100 µM | [59] > 100 µM | [20] > 100 µM | [21] > 100 µM | [53] > 100 µM | [22] > 100 µM | [23] > 100 µM | [24] > 100 µM | [25] > 100 µM | [26] > 100 µM | [27] > 100 µM | [28] > 100 µM | [29] > 100 µM | [30] > 100 µM | [31] > 100 µM | [32] > 100 µM | [54] > 100 µM | [34] > 100 µM | [35] > 100 µM | [36] > 100 µM | [37] > 100 µM | [55] > 100 µM | [39] > 100 µM | [40] > 100 µM | [56] > 100 µM | [41] > 100 µM | [57] > 100 µM | [42] > 100 µM | [43] > 100 µM | [45] > 100 µM | [46] > 100 µM
> 100 µM: [3]
